# Test results taken from PubChem BioAssay (NCI).
#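 Interpolation was linear, between the two tested concentrations surrounding the appropriate level; five concentrations were tested over 48 hours in 96-well plates. TGI denotes the concentration required for complete inhibition of growth.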
# Tests used:
# Assay in all cases: NCI anticancer screen, dose series, 48 h
# [1] = test system: SNB-19 CNS
# [2] = test system: COLO 205 colon
# [3] = test system: NCI-H522 lung
# [4] = test system: SF-539 CNS
# [5] = test system: LOX IMVI melanoma
# [6] = test system: A498 renal
# [7] = test system: SF-268 CNS
# [8] = test system: MDA-MB-231 breast
# [9] = test system: RPMI-8226 leukemia
# [10] = test system: SK-MEL-5 melanoma
# [11] = test system: DU-145 prostate
# [12] = test system: IGROV1 ovarian
# [13] = test system: MCF7 breast
# [14] = test system: NCI/ADR-RES ovarian
Structure (SMILES),TGI [1] [µM],TGI [2] [µM],TGI [3] [µM],TGI [4] [µM],TGI [5] [µM],TGI [6] [µM],TGI [7] [µM],TGI [8] [µM],TGI [9] [µM],TGI [10] [µM],TGI [11] [µM],TGI [12] [µM],TGI [13] [µM],TGI [14] [µM]
Nc1cccc(/C=C/CN2CCN(CCOC(c3ccccc3)c3ccccc3)CC2)c1,30.7,20.9,27.7,31.7,28.9,32.5,35.7,30.3,15.2,26.8,26.4,30.1,29.4,29.5
N#CC12CC=C(c3ccccc3)N=C1NC(c1ccccc1)=CC2 (stereo not drawn),> 100,> 100,> 100,> 100,> 100,97,> 100,> 100,73.8,39.4,> 100,> 100,> 100,> 100
CC(C)[Si](Oc1cc2c3c(ccc2c(O)c1[C@@H](C)CO[Si](C)(C)C(C)(C)C)C(C)(C)CCC3)(C(C)C)C(C)C,> 100,> 100,> 100,> 100,> 100,> 100,> 100,> 100,> 100,59.8,> 100,> 100,> 100,> 100
CC(C)CC(NC=O)C(=O)NC(Cc1ccccc1)NC(=O)CNC(=O)C(C)NC(=O)OC(C)(C)C (stereo not drawn),> 100,> 100,> 100,> 100,> 100,> 100,> 100,> 100,> 100,> 100,> 100,> 100,> 100,> 100
CC(=O)c1c2c(cc3c1CC1(C3)Cc3ccc4c(c3C1=O)CCC4)CCC2 (stereo not drawn),> 100,39.3,9.51,> 100,> 100,> 100,> 100,> 100,> 100,38.5,> 100,> 100,> 100,17.7
CNC(=O)C1CCC(=O)N1CN(C(C)=O)c1ccccc1 (stereo not drawn),> 100,> 100,> 100,> 100,> 100,> 100,> 100,> 100,> 100,> 100,> 100,> 100,> 100,> 100
C[C@]12CC[C@H]3[C@@H](CC=C4C[C@@H](O)CC[C@@]43C)[C@@H]1C[C@H](N1CCOCC1)[C@@H]2O,> 100,> 100,> 100,> 100,> 100,> 100,> 100,> 100,> 100,> 100,> 100,> 100,> 100,> 100
